These results are taken from patent US20060058320A1, “[1,2,4] Triazolo[1,5-c]pyrimidine derivatives” (KYOWA HAKKO KOGYO CO., LTD., priority 2002, published 2006).

Molecules are shown by their SMILES. Where a name gives a salt, the structure may show the parent alone. Read-outs that look alike come from different tables or passages of the source.

This assay relates to CGS 21680-induced catalepsy. The experiment in a line: Activity on CGS 21680-induced catalepsy. In kind it is in vivo, mice. To be noted: for inhibition in vivo at 10 mg/kg: Mus musculus, po, read-out: Remission ratio (%); for Total score: total catalepsy score of 10 mice (maximum 50 points; 40 points or less = positive), one hour after administration; for Number of animals showing remission: cases with catalepsy score of 4 points or less in 10 cases. As for the experimental part: Parkinson's disease is a motor disorder based on degeneration and cell death of the nigrostriatal dopaminergic neurons. When CGS 21680 (adenosine A2A receptor agonist) is administered into the intracerebral ventricle, the inhibitory synaptic transmission of GABA in the medium sized spiny neurons in the corpus striatum is inhibited directly via the adenosine A2A receptor [Journal of Neuroscience, vol. 16, p. 605 (1996)]. Accordingly, it is concidered that the adenosine A2A receptor agonists positively regulate the output of the GABAergic neurons from the corpus striatum to the globus pallidus lateralis, and, as a result, catalepsy is induced by the administration of CGS 21680.
The test was carried out using ten 5-week age male ddY mice (22-25 g in body weight, Japan SLC) per group. CGS 21680 (produced by RBI Co) was dissolved in physiological saline (produced by Otsuka Pharmaceutical Co., Ltd.), and 10 μg/20 μL of the solution was injected into mouse intracerebral ventricle. Each test compound was used by suspending it in distilled water containing 0.3% of polyoxylene (20) sorbitan monooleate (referred to as “Tween 80” hereinafter) (produced by Otsuka Pharmaceutical Co., Ltd.). The suspension containing each test compound or a solution containing no test Compound (distilled water containing 0.3% of Tween 80; used as a control) was orally administered (0.1 mL per 10 g of mouse body weight) 30 minutes before the injection of CGS 21680 into the intracerebral ventricle. One hour after the administration of the each test compound, only forelimbs or only hindlimbs of each mouse were laid on a vertically arranged stand made of acryl and having a size of 4.5 cm in height and 1.0 cm in width to measure catalepsy symptoms. All of the test compounds were administered orally in a dose of 10 mg/kg.
The criteria of the catalepsy score are shown below.
The effect was decided by a total catalepsy score of 10 mice in one group (the maximum score: 50 points). When the total score was 40 points or less, the activity of the compounds was decided positive. The number of the animals showing remission of catalepsy was expressed by the number of cases showing a catalepsy score of 4 points or less in 10 cases. The catalepsy remission ratio was expressed as the percentage of the total score in the test compound-administered group to the total score in the control group.

[1] abbreviates: from total score of test group and control group, 10 mg/kg orally.

Consider `Nc1nc(C2=CCN(Cc3csnn3)CC2)cc2nc(-c3ccco3)nn12` [Compound 72, 5-Amino-2-(2-furyl)-7-[1-(1,2,3-thiadiazol-4-yl)methyl-1,2,3,6-tetrahydropyridin-4-yl][1,2,4]triazolo[1,5-c]-pyrimidine], for which the inhibition in vivo at 10 mg/kg was 100%. Besides, the Total score (10 mg/kg orally) was determined as 0.

For the compound `COCCNC(=O)c1cc2nc(-c3ccco3)nn2c(N)n1` [Compound 86, 5-Amino-2-(2-furyl)[1,2,4]triazolo[1,5-c]pyrimidine-7-carboxylic acid (2-methoxyethyl)amide], the inhibition in vivo at 10 mg/kg under setting [1] came out at 100%. This compound gave a Total score (10 mg/kg orally) of 0.

Take `COC1CCN(C(=O)c2cc3nc(-c4ccco4)nn3c(N)n2)CC1` [Compound 144, 5-Amino-2-(2-furyl)[1,2,4]triazolo[1,5-c]pyrimidin-7-yl 4-methoxypiperidino ketone]: under setting [1], the inhibition in vivo at 10 mg/kg stood at 84%. Besides, where the note is “10 mg/kg orally”, the Total score amounted to 7.

As to `CC(C)N(Cc1ccccc1)C(=O)c1cc2nc(-c3ccco3)nn2c(N)n1` [Compound 100, 5-Amino-2-(2-furyl)[1,2,4]triazolo[1,5-c]pyrimidine-7-carboxylic acid (N-benzyl-N-isopropyl)amide], under “10 mg/kg orally”, the “Number of animals showing remission” value worked out at 8 and the Total score stood at 15. Also, the “Remission ratio (%)” value under setting [1] was 64%.

As for `COCCN(C)C(=O)c1cc2nc(-c3ccco3)nn2c(N)n1` [Compound 87, 5-Amino-2-(2-furyl)[1,2,4]triazolo[1,5-c]pyrimidine-7-carboxylic acid [N-(2-methoxyethyl)-N-methyl]amide], the inhibition in vivo at 10 mg/kg under setting [1] came out at 82%. For the setting “10 mg/kg orally”, this compound displayed a Total score of 9.

In the case of `Nc1nc(CO)cc2nc(-c3ccco3)nn12` [Compound 22, 5-Amino-2-(2-furyl)-7-hydroxymethyl[1,2,4]triazolo[1,5-c]-pyrimidine], under setting [1], the inhibition in vivo at 10 mg/kg stood at 84%. Under “10 mg/kg orally”, this compound yielded a Total score of 8.

Take `Nc1nc(C(=O)N2CCC(Cc3ccccc3)CC2)cc2nc(-c3ccco3)nn12` [Compound 158, 5-Amino-2-(2-furyl)[1,2,4]triazolo[1,5-c]pyrimidin-7-yl 4-benzylpiperidino ketone]: the inhibition in vivo at 10 mg/kg was determined as 86%. The Total score (10 mg/kg orally) was found to be 7.

On to `COc1ccc(CN(C)Cc2cc3nc(-c4ccco4)nn3c(N)n2)cc1OC` [Compound 35, 5-Amino-7-[(N-methyl-3,4-dimethoxybenzylamino)methyl]-2-(2-furyl)[1,2,4]triazolo[1,5-c]pyrimidine monohydrochloride], for which the inhibition in vivo at 10 mg/kg amounted to 90%. The compound also gave a Total score (10 mg/kg orally) of 5.

As for `Nc1nc(C(=O)N2CCC(O)(c3ccccc3)CC2)cc2nc(-c3ccco3)nn12` [Compound 150, 5-Amino-2-(2-furyl)[1,2,4]triazolo[1,5-c]pyrimidin-7-yl (4-hydroxy-4-phenyl)piperidino ketone], for the setting “10 mg/kg orally”, the “Number of animals showing remission” value is listed as 8 and the Total score is reported as 11. Further, the “Remission ratio (%)” value under setting [1] came to 76%.

With `Nc1nc(-c2cccnc2)cc2nc(-c3ccco3)nn12` [Compound 53, 5-Amino-2-(2-furyl)-7-(3-pyridyl) [1,2,4]triazolo[1,5-c]-pyrimidine], under setting [1], the inhibition in vivo at 10 mg/kg was 84%. Besides, for the setting “10 mg/kg orally”, the Total score is given as 8.

Regarding `Nc1nc(C(=O)NCc2ccccc2)cc2nc(-c3ccco3)nn12` [Compound 91, 5-Amino-2-(2-furyl)[1,2,4]triazolo[1,5-c]pyrimidine-7-carboxylic acid benzylamide], the inhibition in vivo at 10 mg/kg under setting [1] stood at 94%. For the setting “10 mg/kg orally”, this compound came in with a Total score of 3.

For `COC[C@H]1CCCN1C(=O)c1cc2nc(-c3ccco3)nn2c(N)n1` [Compound 149, (2R)-(2-Methoxymethyl)pyrrolidinyl 5-amino-2-(2-furyl)-7-[1,2,4]triazolo[1,5-c]pyrimidin-7-yl ketone], under “10 mg/kg orally”, the “Number of animals showing remission” value was found to be 7 and the Total score is given as 15. The “Remission ratio (%)” value under setting [1] was 70%.
